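Grown in 96-well plates, cells were treated for 48 hours with each compound at five concentrations. Insufficient inhibition: endpoint recorded as highest concentration tested. Abbreviation: GI50, concentration required for 50% inhibition of growth. TGI: concentration producing complete growth inhibition.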
How the values were obtained:
Test in all cases: growth of human tumour cells (NCI), 48 h
[1] = system: 786-0 renal
[2] = system: A498 renal
[3] = system: A549 NSCLC
[4] = system: ACHN renal
[5] = system: BT-549 breast
[6] = system: CAKI-1 renal
[7] = system: CCRF-CEM leukemia
[8] = system: COLO 205 colon
[9] = system: DU-145 prostate
[10] = system: EKVX NSCLC
[11] = system: HCC-2998 colon
[12] = system: HCT-116 colon
[13] = system: HCT-15 colon
[14] = system: HL-60(TB) leukemia
[15] = system: HOP-62 NSCLC
[16] = system: HOP-92 NSCLC
[17] = system: HS 578T breast
[18] = system: HT29 colon
[19] = system: IGROV1 ovarian
[20] = system: K-562 leukemia
[21] = system: KM12 colon
[22] = system: LOX IMVI melanoma
[23] = system: M14 melanoma
[24] = system: MALME-3M melanoma
[25] = system: MCF7 breast
[26] = system: MDA-MB-231 breast
[27] = system: MDA-MB-468 breast
[28] = system: MOLT-4 leukemia
[29] = system: NCI-H226 lung
[30] = system: NCI-H23 lung
[31] = system: NCI-H460 lung
[32] = system: NCI-H522 lung
[33] = system: NCI/ADR-RES ovarian
[34] = system: OVCAR-4 ovarian
[35] = system: OVCAR-5 ovarian
[36] = system: OVCAR-8 ovarian
[37] = system: PC-3 prostate
[38] = system: RPMI-8226 leukemia
[39] = system: RXF 393 renal
[40] = system: SF-268 CNS
[41] = system: SF-295 CNS
[42] = system: SF-539 CNS
[43] = system: SK-MEL-2 melanoma
[44] = system: SK-MEL-28 melanoma
[45] = system: SK-MEL-5 melanoma
[46] = system: SK-OV-3 ovarian
[47] = system: SN12C renal
[48] = system: SNB-19 CNS
[49] = system: SNB-75 CNS
[50] = system: SR leukemia
[51] = system: SW-620 colon
[52] = system: T-47D breast
[53] = system: TK-10 renal
[54] = system: U251 CNS
[55] = system: UACC-257 melanoma
[56] = system: UACC-62 melanoma
[57] = system: UO-31 renal

With `N#Cc1ccc(/C=N/NC(=O)c2[nH]c3ccc(Br)cc3c2-c2ccccc2)o1` the GI50 [1] was 308 nM, the TGI [1] was 10100 nM and the GI50 [2] was 15600 nM. It also gave a TGI [2] of 42300 nM, a GI50 [3] of 383 nM and a TGI [3] of 14000 nM. For the same compound, the GI50 [4] was 420 nM, the TGI [4] was 13400 nM and the GI50 [5] was 243 nM. The TGI [5] was 3220 nM, the GI50 [6] was 427 nM and the TGI [6] was 16200 nM. For the same compound, the GI50 [7] was 295 nM, the TGI [7] was > 54500 nM and the GI50 [8] was 198 nM. It also gave a TGI [8] of 371 nM, a GI50 [9] of 379 nM and a TGI [9] of 14800 nM. For the same compound, the GI50 [10] was 496 nM, the TGI [10] was 27300 nM and the GI50 [11] was 278 nM. The TGI [11] was 2620 nM, the GI50 [12] was 198 nM and the TGI [12] was 11700 nM. The GI50 [13] was 333 nM, the TGI [13] was 13700 nM and the GI50 [14] was 196 nM. It also gave a TGI [14] of 2780 nM, a GI50 [15] of 350 nM and a TGI [15] of 13500 nM. It also gave a GI50 [16] of 2120 nM, a TGI [16] of 18200 nM and a GI50 [17] of 313 nM. The TGI [17] was 20100 nM, the GI50 [18] was 204 nM and the TGI [18] was 2520 nM. For the same compound, the GI50 [19] was 404 nM, the TGI [19] was 16600 nM and the GI50 [20] was 128 nM. It also gave a TGI [20] of 15000 nM, a GI50 [21] of 315 nM and a TGI [21] of 11300 nM. The GI50 [22] was 124 nM, the TGI [22] was 11600 nM and the GI50 [23] was 324 nM. For the same compound, the TGI [23] was 22700 nM, the GI50 [24] was 434 nM and the TGI [24] was 22200 nM. It also gave a GI50 [25] of 306 nM, a TGI [25] of 16700 nM and a GI50 [26] of 246 nM. For the same compound, the TGI [26] was 655 nM, the GI50 [27] was 318 nM and the TGI [27] was 14100 nM. For the same compound, the GI50 [28] was 352 nM, the TGI [28] was 32700 nM and the GI50 [29] was 1110 nM. For the same compound, the TGI [29] was 27500 nM, the GI50 [30] was 338 nM and the TGI [30] was 14000 nM. The GI50 [31] was 347 nM, the TGI [31] was 10700 nM and the GI50 [32] was 91.4 nM. The TGI [32] was 340 nM, the GI50 [33] was 136 nM and the TGI [33] was 408 nM. For the same compound, the GI50 [34] was 1100 nM, the TGI [34] was 25300 nM and the GI50 [35] was 406 nM. It also gave a TGI [35] of 21100 nM, a GI50 [36] of 226 nM and a TGI [36] of 624 nM. The GI50 [37] was 482 nM, the TGI [37] was 19700 nM and the GI50 [38] was 369 nM. It also gave a TGI [38] of 27900 nM, a GI50 [39] of 486 nM and a TGI [39] of 14700 nM. The GI50 [40] was 611 nM, the TGI [40] was 20300 nM and the GI50 [41] was 321 nM. The TGI [41] was 13300 nM, the GI50 [42] was 212 nM and the TGI [42] was 527 nM. For the same compound, the GI50 [43] was 294 nM, the TGI [43] was 13500 nM and the GI50 [44] was 806 nM. It also gave a TGI [44] of 21100 nM, a GI50 [45] of 272 nM and a TGI [45] of 770 nM. The GI50 [46] was 513 nM, the TGI [46] was 22500 nM and the GI50 [47] was 389 nM. For the same compound, the TGI [47] was 12600 nM, the GI50 [48] was 394 nM and the TGI [48] was 17000 nM. The GI50 [49] was 369 nM, the TGI [49] was 14600 nM and the GI50 [50] was 152 nM. The GI50 [51] was 421 nM, the TGI [51] was 20100 nM and the GI50 [52] was 4660 nM. The TGI [52] was 32900 nM, the GI50 [53] was 7320 nM and the TGI [53] was 26900 nM. The GI50 [54] was 330 nM, the TGI [54] was 12300 nM and the GI50 [55] was 1190 nM. For the same compound, the TGI [55] was 19700 nM, the GI50 [56] was 392 nM and the TGI [56] was 17900 nM. The GI50 [57] was 454 nM and the TGI [57] was 15400 nM.

Source: PubChem BioAssay (NCI)
